In ChEMBL document CHEMBL1201862, “PubChem BioAssay data set” (2004):
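All cell lines were grown in 96-well plates and treated with compound for 48 hours. Here, GI50 denotes the concentration required for 50% inhibition of growth.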 Active and inactive are the calls of the source. Cut-off read from the data, not from the text of the source: active = GI50 up to about 1.1 µM and inactive = higher.

What was measured:
Test in all cases: inhibition of tumour cell growth, NCI panel, 48 h
[1] = system: K562
[2] = system: M14
[3] = system: PC-3
[4] = system: HT-29
[5] = system: UO-31
[6] = system: OVCAR-4
[7] = system: NCI-H226
[8] = system: SR
[9] = system: MDA-N
[10] = system: SF-539
[11] = system: SN12C
[12] = system: HCT-116
[13] = system: IGROV-1
[14] = system: HOP-92
[15] = system: MCF7
[16] = system: SK-MEL-28
[17] = system: HL-60
[18] = system: OVCAR-5
[19] = system: NCI-H522
[20] = system: TK-10
[21] = system: HOP-62
[22] = system: SNB-75
[23] = system: A498
[24] = system: HCC 2998
[25] = system: SK-OV-3
[26] = system: Hs-578T
[27] = system: MOLT-4
[28] = system: MDA-MB-435
[29] = system: ACHN
[30] = system: U-251
[31] = system: NCI-H460
[32] = system: NCI-H23
[33] = system: BT-549
[34] = system: Malme-3M
[35] = system: KM12
[36] = system: OVCAR-3
[37] = system: DU-145
[38] = system: LOX IMVI
[39] = system: SF-268
[40] = system: OVCAR-8
[41] = system: SK-MEL-2
[42] = system: RPMI-8226
[43] = system: SK-MEL-5
[44] = system: SNB-19
[45] = system: T47D
[46] = system: SF-295
[47] = system: SW-620
[48] = system: HCT-15
[49] = system: CAKI-1
[50] = system: COLO 205
[51] = system: A549
[52] = system: EKVX
[53] = system: CCRF-CEM
[54] = system: UACC-62
[55] = system: UACC-257
[56] = system: NCI/ADR-RES
[57] = system: MDA-MB-231
[58] = system: 786-0

O=C(Nc1cccc2ccccc12)Nn1cnnc1 was tested, and the GI50 [1] was > 100 µM (inactive), the GI50 [2] was > 100 µM (inactive) and the GI50 [3] was > 100 µM (inactive). For the same compound, the GI50 [4] was > 100 µM (inactive), the GI50 [5] was > 100 µM (inactive) and the GI50 [6] was > 100 µM (inactive). For the same compound, the GI50 [7] was > 100 µM (inactive), the GI50 [8] was > 100 µM (inactive) and the GI50 [9] was > 100 µM (inactive). For the same compound, the GI50 [10] was > 100 µM (inactive), the GI50 [11] was > 100 µM (inactive) and the GI50 [12] was > 100 µM (inactive). For the same compound, the GI50 [13] was > 100 µM (inactive), the GI50 [14] was > 100 µM (inactive) and the GI50 [15] was > 100 µM (inactive). The GI50 [16] was > 100 µM (inactive), the GI50 [17] was > 100 µM (inactive) and the GI50 [18] was > 100 µM (inactive). For the same compound, the GI50 [19] was > 100 µM (inactive), the GI50 [20] was > 100 µM (inactive) and the GI50 [21] was > 100 µM (inactive). The GI50 [22] was 27.6 µM (inactive), the GI50 [23] was > 100 µM (inactive) and the GI50 [24] was > 100 µM (inactive). The GI50 [25] was > 100 µM (inactive), the GI50 [26] was > 100 µM (inactive) and the GI50 [27] was > 100 µM (inactive). The GI50 [28] was > 100 µM (inactive), the GI50 [29] was > 100 µM (inactive) and the GI50 [30] was > 100 µM (inactive). The GI50 [31] was > 100 µM (inactive), the GI50 [32] was > 100 µM (inactive) and the GI50 [33] was > 100 µM (inactive). For the same compound, the GI50 [34] was > 100 µM (inactive), the GI50 [35] was > 100 µM (inactive) and the GI50 [36] was > 100 µM (inactive). For the same compound, the GI50 [37] was > 100 µM (inactive), the GI50 [38] was > 100 µM (inactive) and the GI50 [39] was > 100 µM (inactive). For the same compound, the GI50 [40] was 19.1 µM (inactive), the GI50 [41] was > 100 µM (inactive) and the GI50 [42] was > 100 µM (inactive). For the same compound, the GI50 [43] was > 100 µM (inactive), the GI50 [44] was > 100 µM (inactive) and the GI50 [45] was > 100 µM (inactive). For the same compound, the GI50 [46] was > 100 µM (inactive), the GI50 [47] was > 100 µM (inactive) and the GI50 [48] was > 100 µM. The GI50 [49] was > 100 µM (inactive), the GI50 [50] was > 100 µM (inactive) and the GI50 [51] was > 100 µM (inactive). The GI50 [52] was > 100 µM (inactive), the GI50 [53] was > 100 µM (inactive) and the GI50 [54] was > 100 µM (inactive). The GI50 [55] was > 100 µM (inactive).

In the case of CC(C)c1cccc(C(C)C)c1OS(=O)(=O)NC(=O)OC(C(F)(F)F)C(F)(F)F, the GI50 [1] was 24.5 µM (inactive), the GI50 [2] was 19.2 µM (inactive) and the GI50 [3] was 36.7 µM (inactive). The GI50 [5] was 30.1 µM (inactive), the GI50 [6] was 50.1 µM (inactive) and the GI50 [7] was 35.8 µM (inactive). The GI50 [8] was 36 µM (inactive), the GI50 [9] was 56.9 µM (inactive) and the GI50 [10] was 30.6 µM (inactive). For the same compound, the GI50 [11] was 33.2 µM (inactive), the GI50 [12] was 31.5 µM (inactive) and the GI50 [13] was > 100 µM (inactive). For the same compound, the GI50 [14] was 21.6 µM (inactive), the GI50 [15] was 32 µM (inactive) and the GI50 [16] was > 100 µM (inactive). The GI50 [17] was 37.6 µM (inactive), the GI50 [18] was > 100 µM (inactive) and the GI50 [19] was 39.5 µM (inactive). For the same compound, the GI50 [20] was > 100 µM (inactive), the GI50 [21] was 34.8 µM (inactive) and the GI50 [23] was 71.9 µM (inactive). The GI50 [24] was 40.5 µM (inactive), the GI50 [25] was 46.7 µM (inactive) and the GI50 [26] was > 100 µM (inactive). The GI50 [27] was 20 µM (inactive), the GI50 [28] was 57.1 µM (inactive) and the GI50 [29] was 37.1 µM (inactive). The GI50 [30] was 43.7 µM (inactive), the GI50 [31] was 46.7 µM (inactive) and the GI50 [32] was 45.7 µM (inactive). For the same compound, the GI50 [33] was 67.8 µM (inactive), the GI50 [34] was > 100 µM (inactive) and the GI50 [35] was 43.7 µM (inactive). The GI50 [37] was 33.5 µM (inactive), the GI50 [56] was 32.7 µM (inactive) and the GI50 [38] was 50 µM (inactive). For the same compound, the GI50 [39] was 95.7 µM (inactive), the GI50 [40] was 46.5 µM (inactive) and the GI50 [41] was 35.8 µM (inactive). For the same compound, the GI50 [42] was 16.4 µM (inactive), the GI50 [43] was 53.2 µM (inactive) and the GI50 [44] was 28.2 µM (inactive). The GI50 [46] was 25.3 µM (inactive), the GI50 [47] was 51.6 µM (inactive) and the GI50 [48] was 34.1 µM. For the same compound, the GI50 [49] was > 100 µM (inactive), the GI50 [57] was 36.9 µM (inactive) and the GI50 [50] was 88.3 µM (inactive). The GI50 [51] was 28.6 µM (inactive), the GI50 [52] was 37.8 µM (inactive) and the GI50 [53] was 6.81 µM (inactive). For the same compound, the GI50 [55] was 53.7 µM (inactive).

With CO/C(=N\N=C\c1ccc(OC)c(OC)c1)c1ccncc1 the GI50 [1] was > 10 µM (inactive), the GI50 [2] was > 10 µM (inactive) and the GI50 [5] was 9.55 µM (inactive). For the same compound, the GI50 [6] was > 10 µM (inactive), the GI50 [7] was > 10 µM (inactive) and the GI50 [8] was > 10 µM (inactive). The GI50 [9] was > 10 µM (inactive), the GI50 [10] was > 10 µM (inactive) and the GI50 [11] was > 10 µM (inactive). The GI50 [13] was > 10 µM (inactive), the GI50 [14] was > 10 µM (inactive) and the GI50 [15] was > 10 µM (inactive). For the same compound, the GI50 [17] was > 10 µM (inactive), the GI50 [20] was > 10 µM (inactive) and the GI50 [21] was > 10 µM (inactive). The GI50 [22] was > 10 µM (inactive), the GI50 [23] was > 10 µM (inactive) and the GI50 [24] was > 10 µM (inactive). The GI50 [25] was > 10 µM (inactive), the GI50 [26] was > 10 µM (inactive) and the GI50 [27] was > 10 µM (inactive). The GI50 [30] was > 10 µM (inactive), the GI50 [31] was > 10 µM (inactive) and the GI50 [32] was > 10 µM (inactive). For the same compound, the GI50 [33] was > 10 µM (inactive), the GI50 [34] was > 10 µM (inactive) and the GI50 [35] was > 10 µM (inactive). The GI50 [58] was > 10 µM (inactive), the GI50 [37] was > 10 µM (inactive) and the GI50 [56] was > 10 µM (inactive). For the same compound, the GI50 [38] was > 10 µM (inactive), the GI50 [39] was > 10 µM (inactive) and the GI50 [40] was > 10 µM (inactive). For the same compound, the GI50 [42] was > 10 µM (inactive), the GI50 [43] was > 10 µM (inactive) and the GI50 [45] was > 10 µM (inactive). The GI50 [47] was > 10 µM (inactive), the GI50 [48] was > 10 µM and the GI50 [49] was > 10 µM (inactive). The GI50 [57] was > 10 µM (inactive), the GI50 [50] was > 10 µM (inactive) and the GI50 [51] was > 10 µM (inactive). The GI50 [52] was > 10 µM (inactive), the GI50 [53] was > 10 µM (inactive) and the GI50 [54] was > 10 µM (inactive). The GI50 [55] was > 10 µM (inactive).
